Where “and” joins values, the source holds several entries; their conditions need not be identical. Identical values can stand only once. Inconclusive results and toxic doses are left out.

The text below walks through data of PubChem BioAssay AID256 (DTP/NCI, 2004).

The assay relates to CD2F1 mice, L1210 leukemia ip, survival T/C. Briefly: NCI In Vivo Anticancer Drug Screen. Data for tumor model L1210 Leukemia (intraperitoneal) in CD2F1 (CDF1) mice. The following applies: higher = longer survival. A digest of the protocol:
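Vehicle-treated tumor-bearing mice served as controls (C) for compound-treated mice (T). Reported figure is T divided by C.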

[1] abbreviates: endpoint: mean survival time, dose: 100.0 mg/kg/injection, schedule: Q01DX009 (ip), vehicle: saline with Tween-80.
[2] abbreviates: endpoint: mean survival time, dose: 200.0 mg/kg/injection, schedule: Q01DX009 (ip), vehicle: saline with Tween-80.
[3] abbreviates: endpoint: mean survival time, dose: 400.0 mg/kg/injection, schedule: Q01DX009 (ip), vehicle: saline with Tween-80.
Setting [4] is: endpoint: mean survival time, dose: 100.0 mg/kg/injection, schedule: Q04DX003 (ip), vehicle: saline with Tween-80.
[5] abbreviates: endpoint: mean survival time, dose: 100.0 mg/kg/injection, schedule: Q01DX001 (ip), vehicle: saline with Tween-80.
The mark [6] stands for this setting: endpoint: mean survival time, dose: 200.0 mg/kg/injection, schedule: Q01DX001 (ip), vehicle: saline with Tween-80.
Setting [7] is: endpoint: mean survival time, dose: 200.0 mg/kg/injection, schedule: Q04DX003 (ip), vehicle: saline with Tween-80.
[8] abbreviates: endpoint: mean survival time, dose: 400.0 mg/kg/injection, schedule: Q01DX001 (ip), vehicle: saline with Tween-80.
The mark [9] stands for this setting: endpoint: mean survival time, dose: 400.0 mg/kg/injection, schedule: Q04DX003 (ip), vehicle: saline with Tween-80.
[10] abbreviates: endpoint: mean survival time, dose: 100.0 mg/kg/injection, schedule: Q04DX002 (ip), vehicle: saline with Tween-80.
Where [11] appears, read: endpoint: mean survival time, dose: 200.0 mg/kg/injection, schedule: Q04DX002 (ip), vehicle: saline with Tween-80.
Setting [12] is: endpoint: mean survival time, dose: 400.0 mg/kg/injection, schedule: Q04DX002 (ip), vehicle: saline with Tween-80.
Setting [13] is: endpoint: mean survival time, dose: 100.0 mg/kg/injection, schedule: Q04DX003 (ip), vehicle: saline.
The mark [14] stands for this setting: endpoint: mean survival time, dose: 200.0 mg/kg/injection, schedule: Q04DX003 (ip), vehicle: saline.

Turning to `Cc1ccc(NC(=S)NCCO)cc1`, the T/C reads like this: under setting [1], 86 % of control; under setting [2], 92 % of control; under setting [3], 88 % of control.
Consider `O=C(O)/C=C/C(=O)Nc1ccc(Cl)cc1`, for which the T/C was 104 % of control under setting [1] and 89 % of control under setting [2].
As to `C=CCOCC(O)CN(CCC)CCC` (centres undefined), the T/C is 103 % of control (endpoint: mean survival time, dose: 12.5 mg/kg/injection, schedule: Q01DX009 (ip), vehicle: saline); 95 % of control (endpoint: mean survival time, dose: 25.0 mg/kg/injection, schedule: Q01DX009 (ip), vehicle: saline); 93 % of control (endpoint: mean survival time, dose: 25.0 mg/kg/injection, schedule: Q04DX003 (ip), vehicle: saline); 103 % of control (endpoint: mean survival time, dose: 50.0 mg/kg/injection, schedule: Q01DX009 (ip), vehicle: saline); 89 % of control (endpoint: mean survival time, dose: 50.0 mg/kg/injection, schedule: Q04DX003 (ip), vehicle: saline); 97 % of control under setting [4].
For the compound `c1ccc(CCc2ccccc2)cc1`, the T/C reads like this: (endpoint: mean survival time, dose: 25.0 mg/kg/injection, schedule: Q04DX003 (ip), vehicle: saline with Tween-80) 100 % of control; (endpoint: mean survival time, dose: 50.0 mg/kg/injection, schedule: Q04DX003 (ip), vehicle: saline with Tween-80) 103 % of control; under setting [5], 100 % of control; under setting [4], 104 % of control and 105 % of control; under setting [6], 103 % of control; under setting [7], 101 % of control. Further, the T/C reads like this: under setting [8], 91 % of control; under setting [9], 107 % of control.
As to `O=C1OC(=O)C2C3CCC(O3)C12` (centres undefined), the T/C runs as follows: (endpoint: mean survival time, dose: 1.56 mg/kg/injection, schedule: Q01DX009 (ip), vehicle: saline) 98 % of control; (endpoint: mean survival time, dose: 3.12 mg/kg/injection, schedule: Q01DX009 (ip), vehicle: saline) 101 % of control; (endpoint: mean survival time, dose: 5.0 mg/kg/injection, schedule: Q01DX009 (ip), vehicle: saline with Tween-80) 103 % of control; (endpoint: mean survival time, dose: 10.0 mg/kg/injection, schedule: Q01DX009 (ip), vehicle: saline with Tween-80) 100 % of control; (endpoint: mean survival time, dose: 20.0 mg/kg/injection, schedule: Q01DX009 (ip), vehicle: saline with Tween-80) 98 % of control.
`O=C(O)CNCC(=O)O`: the T/C is, setting by setting: under setting [1], 93 % of control; under setting [2], 97 % of control; under setting [3], 98 % of control.
On to `COc1c(C)c2c(c3c1CC(=O)O3)C(=O)OC2`, for which the T/C under setting [10] is 108 % of control, the T/C under setting [11] was 112 % of control and the T/C under setting [12] was 112 % of control.
Regarding `COc1ccc(CN(CCO)CCCCCCN(CCO)Cc2ccc(OC)cc2)cc1`, the T/C reads like this: (endpoint: mean survival time, dose: 25.0 mg/kg/injection, schedule: Q01DX009 (ip), vehicle: saline with Tween-80) 93 % of control; (endpoint: mean survival time, dose: 50.0 mg/kg/injection, schedule: Q01DX009 (ip), vehicle: saline with Tween-80) 96 % of control; under setting [1], 98 % of control; (endpoint: median survival time, dose: 50.0 mg/kg/injection, schedule: Q04DX002 (ip), vehicle: saline) 100 % of control; (endpoint: median survival time, dose: 100.0 mg/kg/injection, schedule: Q04DX002 (ip), vehicle: saline) 100 % of control.
In the case of `C#CCCCOC(=O)Nc1ccccc1`, the T/C by setting is: (endpoint: mean survival time, dose: 100.0 mg/kg/injection, schedule: Q04DX003 (ip), vehicle: Klucel (hydroxypropylcellulose) (HPC)) 97 % of control; (endpoint: mean survival time, dose: 200.0 mg/kg/injection, schedule: Q04DX003 (ip), vehicle: Klucel (hydroxypropylcellulose) (HPC)) 95 % of control.
As for `CCN(CC)CCCNc1nccc2c(C)c3[nH]c4ccncc4c3cc12`, the T/C is 124 % of control (endpoint: median survival time, dose: 5.0 mg/kg/injection, schedule: Q01DX001 (ip), vehicle: other); 157 % of control (endpoint: median survival time, dose: 10.0 mg/kg/injection, schedule: Q01DX001 (ip), vehicle: other); 175 % of control (endpoint: median survival time, dose: 20.0 mg/kg/injection, schedule: Q01DX001 (ip), vehicle: other).
As to `Nc1nc(N)c2[nH]c(-c3ccccc3[N+](=O)[O-])nc2n1`, the T/C was 96 % of control (endpoint: mean survival time, dose: 12.5 mg/kg/injection, schedule: Q01DX005 (ip), vehicle: water); 89 % of control (endpoint: mean survival time, dose: 25.0 mg/kg/injection, schedule: Q01DX005 (ip), vehicle: water); 87 % of control (endpoint: mean survival time, dose: 50.0 mg/kg/injection, schedule: Q01DX005 (ip), vehicle: water); 96 % of control (endpoint: mean survival time, dose: 100.0 mg/kg/injection, schedule: Q01DX005 (ip), vehicle: water); 96 % of control (endpoint: mean survival time, dose: 200.0 mg/kg/injection, schedule: Q01DX005 (ip), vehicle: water).
Take `Nc1nc(N)c2nc(CNc3ccc(C(=O)NC(CC(=O)O)C(=O)O)cc3)cnc2n1` (centres undefined): the T/C (endpoint: mean survival time, dose: 6.25 mg/kg/injection, schedule: Q01DX001 (ip), vehicle: saline) was 101 % of control; the T/C (endpoint: mean survival time, dose: 12.5 mg/kg/injection, schedule: Q01DX001 (ip), vehicle: saline) is 98 % of control; the T/C (endpoint: mean survival time, dose: 25.0 mg/kg/injection, schedule: Q01DX001 (ip), vehicle: saline) is 107 % of control; the T/C (endpoint: mean survival time, dose: 50.0 mg/kg/injection, schedule: Q01DX001 (ip), vehicle: saline) is 104 % of control; the T/C (endpoint: mean survival time, dose: 100.0 mg/kg/injection, schedule: Q01DX001 (ip), vehicle: saline) is 104 % of control; the T/C (endpoint: mean survival time, dose: 200.0 mg/kg/injection, schedule: Q01DX001 (ip), vehicle: saline) was 117 % of control.
On to `O/N=C/C(O)(c1ccccc1)c1ccccc1`, for which the T/C is 107 % of control under setting [10] and 100 % of control under setting [11].
Take `Clc1ccc(C(=C(c2ccc(Cl)cc2)c2ccc(Cl)cc2)c2ccc(Cl)cc2)cc1`: the T/C runs as follows: (endpoint: mean survival time, dose: 75.0 mg/kg/injection, schedule: Q01DX001 (ip), vehicle: saline) 100 % of control; (endpoint: mean survival time, dose: 150.0 mg/kg/injection, schedule: Q01DX001 (ip), vehicle: saline) 95 % of control; (endpoint: mean survival time, dose: 300.0 mg/kg/injection, schedule: Q01DX001 (ip), vehicle: saline) 93 % of control.
Turning to `C[C@@H]1CC2=CC(=O)CC[C@]2(C)[C@H]2CC[C@]3(C)[C@@H](O)CC[C@H]3[C@H]12`, the T/C reads like this: under setting [4], 98 % of control; under setting [7], 119 % of control; under setting [9], 98 % of control.
For `CC(=O)OC1(C)C=C/C(=N\S(=O)(=O)c2ccc(C)cc2)c2ccccc21` (centres undefined), the T/C reads like this: under setting [4], 95 % of control; under setting [7], 97 % of control; under setting [9], 95 % of control.
Take `O=C(O)CCCCCNCC(CNCCCCCC(=O)O)(C(=O)O)C(=O)O`: the T/C is, setting by setting: under setting [10], 104 % of control; under setting [11], 96 % of control; under setting [12], 111 % of control.
With `CC(=O)Nc1nc(/C=C\c2ccc([N+](=O)[O-])cc2)c(CCCCc2ccccc2)c(=O)[nH]1`, the T/C by setting is: (endpoint: mean survival time, dose: 3.13 mg/kg/injection, schedule: Q01DX001 (ip), vehicle: saline with Tween-80) 98 % of control; (endpoint: mean survival time, dose: 6.25 mg/kg/injection, schedule: Q01DX001 (ip), vehicle: saline with Tween-80) 96 % of control; (endpoint: mean survival time, dose: 12.5 mg/kg/injection, schedule: Q01DX001 (ip), vehicle: saline with Tween-80) 98 % of control.
For `CNP1(N(C)C)=NP(NC)(N(C)C)=NP(NC)(N(C)C)=N1` (centres undefined), the T/C by setting is: under setting [13], 98 % of control; under setting [14], 98 % of control.
`CC(O)CC1CC(=O)CCC1=O` (centres undefined): the T/C is, setting by setting: under setting [5], 98 % of control; under setting [6], 103 % of control; under setting [8], 95 % of control.
`O=C(Cl)CCc1ccnc2ccccc12`: the T/C under setting [13] is 95 % of control; the T/C under setting [14] is 101 % of control; the T/C (endpoint: mean survival time, dose: 400.0 mg/kg/injection, schedule: Q04DX003 (ip), vehicle: saline) was 113 % of control.
As to `CCOC(=O)C(Cc1c[nH]c2ccccc12)(NC(C)=O)C(=O)OCC`, the T/C is, setting by setting: under setting [4], 98 % of control; under setting [7], 96 % of control; under setting [9], 104 % of control.
